The results in this text go back to patent publication US7655629B2, “Peptides and their use for the treatment of HIV infections” (priority 2002, dated 2010).

As usually defined, the IC50 is the concentration needed to halve the response being measured.

The subject of one assay is HIV-1 NL4-3 DTV. Conditions: read-out: IC50 DTV, P4-CCR5 cells, peptide 2 h before infection, readout three days after infection. From the text: (§1) These cells contain the β-galactosidase reporter gene under the control of the HIV-1 promoter. Thus, activation of the β-galactosidase reporter gene allows to measure the efficiency of HIV-1 infection and thus to quantitate the potency of HIV-1 inhibitors (Detheux M. et al., 2000; Journal of Experimental Medicine 192, 1501-1508; Münch et al., 2002; Antimicrobial Agents and Chemotherapy 46, 982-990).
(§2) To perform a typical infection assay, P4-CCR5 cells (Charneau et al., 1994; Journal of Molecular Biology 241, 651-662; Charneau et al., Virology. 1994 205, 247-53) were kept in RPMI 1640 medium supplemented with 10 volume % FCS. This cell line coexpresses CD4 and both HIV-1 coreceptors CCR5 and CXCR4 and contains the β-galactosidase gene under the control of the HIV-1 promoter. Virus stocks were generated by the calcium coprecipitation method as described (Detheux et al., J Exp Med. 192:1501-8; 2000), and the p24 antigen levels were quantitated with an HIV p24 ELISA kit obtained through the NIH AIDS Reagent Program. Cells were seeded in flat-bottomed 96-well dishes, cultured overnight, and incubated with the different doses of peptide for 2 h before infection with virus containing 1 ng of p24 antigen in a total volume of […] of medium. After overnight incubation, cells were washed twice and cultivated in fresh culture medium without inhibitory peptide. Three days after infection the cells were lysed, and infectivity was quantitated using the Galacto-Light Plus™ chemiluminescence reporter assay kit (Tropix, Bedford, Mass.) as recommended by the manufacturer. All infections were performed in quintuplicate.

In a further assay the test system is X4-tropic HIV-1 NL4-3. Particulars: read-out: IC50 NL4-3; P4-CCR5 cells, HIV-1 NL4-3, peptide 2 h before infection, readout three days after infection.
Excerpt: as §1, §2

Positions of bridges follow the written chain, without caps; N, C: chain ends. Non-standard residues stand in square brackets, D forms with d. Residues, ends and D or L forms follow the SMILES beside them. Tic = O=C(O)[C@@H]1Cc2ccccc2CN1

In the case of `CC[C@H](C)[C@H](NC(=O)[C@H](C)NC(=O)[C@H](CCC(=O)O)NC(=O)[C@@H](N)CC(C)C)C(=O)N1CCC[C@H]1C(=O)N[C@H]1CSSC[C@@H](C(=O)N[C@H](C(=O)NCC(=O)N[C@@H](Cc2ccccc2)C(=O)NCC(=O)N[C@@H](CCCCN)C(=O)N2CCC[C@H]2C(=O)N[C@@H](Cc2ccccc2)C(=O)N[C@H](C(=O)N[C@@H](Cc2ccccc2)C(=O)O)C(C)C)C(C)C)NC(=O)[C@@H]2CCCN2C(=O)[C@@H]2CCCN2C(=O)[C@H]([C@@H](C)CC)NC(=O)[C@H](CO)NC1=O` [VIR-162] (H-LEAIPCSIPPCVGFGKPFVF-OH; disulfide 6-11), the IC50 in the assay with HIV-1 NL4-3 DTV was determined as 950 nM; in the assay with X4-tropic HIV-1 NL4-3, 660 nM.
With `CC[C@H](C)[C@H](NC(=O)[C@H](C)NC(=O)[C@H](CCC(=O)O)NC(=O)[C@@H](N)CC(C)C)C(=O)N1CCC[C@H]1C(=O)N[C@H]1CSSC[C@@H](C(=O)N[C@H](C(=O)N[C@@H](CC(C)C)C(=O)N[C@@H](Cc2ccccc2)C(=O)N[C@@H](CC(N)=O)C(=O)N[C@@H](CCCCN)C(=O)N2CCC[C@H]2C(=O)N[C@@H](Cc2ccccc2)C(=O)N[C@H](C(=O)N[C@@H](Cc2ccccc2)C(=O)O)C(C)C)C(C)C)NC(=O)[C@@H]2CCCN2C(=O)[C@@H]2CCCN2C(=O)[C@H]([C@@H](C)CC)NC(=O)[C@H](CO)NC1=O` [VIR-163] (H-LEAIPCSIPPCVLFNKPFVF-OH; disulfide 6-11), the IC50 in the assay on HIV-1 NL4-3 DTV was 290 nM; with X4-tropic HIV-1 NL4-3, 760 nM.
As to `CC[C@H](C)[C@H](NC(=O)[C@H](C)NC(=O)[C@H](CCC(=O)O)NC(=O)[C@@H](N)CC(C)C)C(=O)N1CCC[C@H]1C(=O)N[C@@H](CCSC)C(=O)N[C@@H](CO)C(=O)N[C@H](C(=O)N1CCC[C@H]1C(=O)N1CCC[C@@H]1C(=O)N[C@@H](CCC(=O)O)C(=O)N[C@H](C(=O)NCC(=O)N[C@@H](Cc1ccccc1)C(=O)NCC(=O)N[C@@H](CCCCN)C(=O)N1CCC[C@H]1C(=O)N[C@@H](Cc1ccccc1)C(=O)N[C@H](C(=O)N[C@@H](Cc1ccccc1)C(=O)O)C(C)C)C(C)C)[C@@H](C)CC` [VIR-190, LEAIPMSIPpEVGFGKPFVF] (H-LEAIPMSIP[dP]EVGFGKPFVF-OH), the IC50 in the assay with HIV-1 NL4-3 DTV is 3110 nM; with X4-tropic HIV-1 NL4-3, 1840 nM.
For the molecule `CC[C@H](C)[C@H](NC(=O)[C@H](C)NC(=O)[C@H](CCC(=O)O)NC(=O)[C@@H](N)CC(C)C)C(=O)N1CCC[C@H]1C(=O)N[C@@H](CCSC)C(=O)N[C@@H](CO)C(=O)N[C@H](C(=O)N1CCC[C@H]1C(=O)N1CCC[C@@H]1C(=O)N[C@@H](CCC(=O)O)C(=O)N[C@H](C(=O)N[C@@H](CC(C)C)C(=O)N[C@@H](Cc1ccccc1)C(=O)NCC(=O)N[C@@H](CCCCN)C(=O)N1CCC[C@H]1C(=O)N[C@@H](Cc1ccccc1)C(=O)N[C@H](C(=O)N[C@@H](Cc1ccccc1)C(=O)O)C(C)C)C(C)C)[C@@H](C)CC` [VIR-191, LEAIPMSIPpEVLFGKPFVF] (H-LEAIPMSIP[dP]EVLFGKPFVF-OH), the results for the IC50 in the assay on HIV-1 NL4-3 DTV and with X4-tropic HIV-1 NL4-3 were 560 nM and 1790 nM, respectively.
Take `CC[C@H](C)[C@H](NC(=O)[C@H](C)NC(=O)[C@H](CCC(=O)O)NC(=O)[C@@H](N)CC(C)C)C(=O)N1CCC[C@H]1C(=O)N[C@@H](CCSC)C(=O)N[C@@H](CO)C(=O)N[C@H](C(=O)N1CCC[C@H]1C(=O)N1CCC[C@@H]1C(=O)N[C@@H](CCC(=O)O)C(=O)N[C@H](C(=O)N[C@@H](Cc1ccccc1)C(=O)N[C@@H](Cc1ccccc1)C(=O)NCC(=O)N[C@@H](CCCCN)C(=O)N1CCC[C@H]1C(=O)N[C@@H](Cc1ccccc1)C(=O)N[C@H](C(=O)N[C@@H](Cc1ccccc1)C(=O)O)C(C)C)C(C)C)[C@@H](C)CC` [VIR-192, LEAIPMSIPpEVFFGKPFVF] (H-LEAIPMSIP[dP]EVFFGKPFVF-OH): the IC50 with HIV-1 NL4-3 DTV is 1210 nM; in the assay with X4-tropic HIV-1 NL4-3, 1540 nM.
For `CC[C@H](C)[C@H](NC(=O)[C@H](C)NC(=O)[C@H](CCC(=O)O)NC(=O)[C@@H](N)CC(C)C)C(=O)N1CCC[C@H]1C(=O)N[C@@H](CCSC)C(=O)N[C@@H](CO)C(=O)N[C@H](C(=O)N1CCC[C@H]1C(=O)N1CCC[C@@H]1C(=O)N[C@@H](CCC(=O)O)C(=O)N[C@@H](Cc1ccccc1)C(=O)N[C@@H](C)C(=O)N[C@@H](Cc1ccccc1)C(=O)N[C@@H](CC(N)=O)C(=O)N[C@@H](CCCCN)C(=O)N1CCC[C@H]1C(=O)N[C@@H](Cc1ccccc1)C(=O)N[C@H](C(=O)N[C@@H](Cc1ccccc1)C(=O)O)C(C)C)[C@@H](C)CC` [VIR-193, LEAIPMSIPpEFAFNKPFVF] (H-LEAIPMSIP[dP]EFAFNKPFVF-OH), in that order: 1380 nM and 1740 nM.
Regarding `CC[C@H](C)[C@H](NC(=O)[C@H](C)NC(=O)[C@H](CCC(=O)O)NC(=O)[C@@H](N)CC(C)C)C(=O)N1CCC[C@H]1C(=O)N[C@@H](CCSC)C(=O)N[C@@H](CO)C(=O)N[C@H](C(=O)N1CCC[C@H]1C(=O)N1CCC[C@@H]1C(=O)N[C@@H](CCC(=O)O)C(=O)N[C@H](C(=O)N[C@@H](Cc1ccccc1)C(=O)N[C@@H](Cc1ccccc1)C(=O)N[C@@H](CC(N)=O)C(=O)N[C@@H](CCCCN)C(=O)N1CCC[C@H]1C(=O)N[C@@H](Cc1ccccc1)C(=O)N[C@H](C(=O)N[C@@H](Cc1ccccc1)C(=O)O)C(C)C)C(C)C)[C@@H](C)CC` [VIR-197, LEAIPMSIPpEVFFNKPFVF] (H-LEAIPMSIP[dP]EVFFNKPFVF-OH), the IC50 in the assay on HIV-1 NL4-3 DTV was determined as 1440 nM; with X4-tropic HIV-1 NL4-3, 1270 nM.
With `CC[C@H](C)[C@H](NC(=O)[C@@H]1CCCN1C(=O)[C@@H](NC(=O)[C@H](CCCCN)NC(=O)[C@H](CCC(=O)O)NC(=O)[C@@H](N)CC(C)C)[C@@H](C)CC)C(=O)NCC(=O)N[C@H](C(=O)N1CCC[C@H]1C(=O)N1CCC[C@@H]1C(=O)N[C@@H](CCC(=O)O)C(=O)N[C@H](C(=O)N[C@@H](C)C(=O)N[C@@H](Cc1ccccc1)C(=O)N[C@@H](CC(N)=O)C(=O)N[C@@H](CCCCN)C(=O)N1Cc2ccccc2C[C@H]1C(=O)N[C@@H](Cc1ccccc1)C(=O)N[C@H](C(=O)N[C@@H](Cc1ccccc1)C(=O)O)C(C)C)C(C)C)[C@@H](C)CC` [VIR-485, LEKIPIGIPpEVAFNK(L-Tic)FVF] (H-LEKIPIGIP[dP]EVAFNK[Tic]FVF-OH), the IC50 with X4-tropic HIV-1 NL4-3 turned out to be 760 nM.
Turning to `CC[C@H](C)[C@H](NC(=O)[C@@H]1CCCN1C(=O)[C@@H](NC(=O)[C@H](CC(=O)O)NC(=O)[C@H](CCC(=O)O)NC(=O)[C@@H](N)CC(C)C)[C@@H](C)CC)C(=O)NCC(=O)N[C@H](C(=O)N1CCC[C@H]1C(=O)N1CCC[C@@H]1C(=O)N[C@@H](CCC(=O)O)C(=O)N[C@H](C(=O)N1Cc2ccccc2C[C@H]1C(=O)N[C@@H](Cc1ccccc1)C(=O)N[C@@H](CC(N)=O)C(=O)N[C@@H](CCCCN)C(=O)N1CCC[C@H]1C(=O)N[C@@H](Cc1ccccc1)C(=O)N[C@H](C(=O)N[C@@H](Cc1ccccc1)C(=O)O)C(C)C)C(C)C)[C@@H](C)CC` [VIR-487, LEDIPIGIPpEV(L-Tic)FNKPFVF] (H-LEDIPIGIP[dP]EV[Tic]FNKPFVF-OH), the IC50 in the assay on X4-tropic HIV-1 NL4-3 is 256 nM.
The same measure, in the same setting: then `CC[C@H](C)[C@H](NC(=O)[C@@H]1CCCN1C(=O)[C@@H](NC(=O)[C@H](CC(=O)O)NC(=O)[C@H](CCC(=O)O)NC(=O)[C@@H](N)CC(C)C)[C@@H](C)CC)C(=O)NCC(=O)N[C@H](C(=O)N1CCC[C@H]1C(=O)N1CCC[C@@H]1C(=O)N[C@@H](CCC(=O)O)C(=O)N[C@H](C(=O)N[C@@H](C)C(=O)N[C@@H](Cc1ccccc1)C(=O)N[C@@H](CC(N)=O)C(=O)N[C@@H](CCCCN)C(=O)N1Cc2ccccc2C[C@H]1C(=O)N[C@@H](Cc1ccccc1)C(=O)N[C@H](C(=O)N[C@@H](Cc1ccccc1)C(=O)O)C(C)C)C(C)C)[C@@H](C)CC` [VIR-488, LEDIPIGIPpEVAFNK(L-Tic)FVF] (H-LEDIPIGIP[dP]EVAFNK[Tic]FVF-OH), with 415 nM.
For the molecule `CC[C@H](C)[C@H](NC(=O)[C@H](C)NC(=O)[C@H](CCC(=O)O)NC(=O)[C@@H](N)CC(C)C)C(=O)N1CCC[C@H]1C(=O)N[C@H]1CSSC[C@@H](C(=O)N[C@@H](CC(C)C)C(=O)N[C@@H](Cc2ccccc2)C(=O)NCC(=O)N[C@@H](CCCCN)C(=O)N2CCC[C@H]2C(=O)N[C@@H](Cc2ccccc2)C(=O)N[C@H](C(=O)N[C@@H](Cc2ccccc2)C(=O)O)C(C)C)NC(=O)[C@H](CCC(=O)O)NC(=O)[C@@H]2CCCN2C(=O)[C@@H]2CCCN2C(=O)[C@H]([C@@H](C)CC)NC(=O)[C@H](CO)NC1=O` [VIR-570] (H-LEAIPCSIPPECLFGKPFVF-OH; disulfide 6-12), the IC50 in the assay on X4-tropic HIV-1 NL4-3 is 231 nM.
Same read-out and setting: then H-LEAIPISIPPELAFAKPFVF-OH [VIR-286], with 559 nM; and H-LEAIPISIPPEVFFGKPFVF-OH [VIR-284], with 281 nM; and LEAIPMKIPPEFLFGKPFVF [VIR-590], with 343 nM.
